“Also recorded” adds a separate entry of the source.
How the values were obtained:
advanced solid tumors = assay: preliminary antitumor activity by RECIST version 1.1 and irRC, Part A; assay type: in vivo, human; settings: ARRY-382 300 mg cohort, with pembrolizumab
From the text: Key eligibility criteria for Part A was adult patients with confirmed diagnosis of: bladder cancer, head and neck squamous cell cancer, ovarian cancer, triple-negative breast cancer, gastric cancer, metastatic colorectal cancer, or pancreatic ductal adenocarcinoma, refractory to standard of car, with no standard therapy available or for which the patient refused standard therapy; advanced, unresectable, or metastatic melanoma with or without prior treatment; or advanced/metastatic PD-L1-positive non-small cell lung cancer (NSCLC) meeting any of the following criteria: (1) tumors without EGFR or ALK genomic aberrations in patients who had received no prior systemic chemotherapy or had disease progression on or after platinum-containing chemotherapy, or (2) tumors with EGFR or ALK genomic aberrations in patients with disease progression on a US Food and Drug Administration-approved therapy for EGFR or ALK genomic tumor aberrations. Patients who received prior immune checkpoint inhibitor treatment were excluded from the study.
DLTs were determined using standard definitions.

[1] = Phase 1b dose escalation (Part A): DLTs, adverse events, RP2D of ARRY-382 with pembrolizumab
Experimental: DLTs were determined using standard definitions. Adverse events (AEs) and serious AEs were collected to analyze the safety and tolerability of treatment. […] Blood samples for pharmacodynamics analysis of circulating biomarkers, including CSF-1, were collected on days 1, 8, and 15 of cycle 1 and on day 1 of all subsequent cycles.

[2] = Bendell et al. 2013, cited from earlier work
[3] = plasma pharmacokinetics of ARRY-382, Phase 1b Part A (with pembrolizumab); assay type: in vivo, human
CSF-1 = assay: pharmacodynamic analysis of circulating biomarkers: CSF-1 levels, Part A; assay type: in vivo, human
[4] = Part A, ARRY-382 + pembrolizumab

Which “patients with stable disease per irRC” value (advanced solid tumors) does the source give for `Cc1cccc(Cn2nc(C3CC3)c3c(NC(=O)c4cnc5cc(OCCN6CCN(C)CC6)ccn45)cccc32)n1` [ARRY-382, N-(3-cyclopropyl-1-((6-methylpyridin-2-yl)methyl)-1H-indazol-4-yl)-7-(2-(4-methylpiperazin-1-yl)ethoxy)imidazo[1,2-a]pyridine-3-carboxamide] here?
The value was 3 patients.

What about the “stable disease per RECIST version 1.1, share of patients” value (advanced solid tumors) of the same molecule?
Its value is 33%.

What about the “stable disease per irRC, share of patients” value (advanced solid tumors) of the same molecule?
Its value is 50%.

What about the “dose-limiting toxicities in the 200 mg cohort” value ([1]; ARRY-382 200 mg QD + pembrolizumab, six patients) of the same molecule?
The value was “No DTLs occurred; also recorded: No DLTs occurred”.

And the “patients who discontinued because of an AE of pneumonitis” value ([1]; ARRY-382 200 mg cohort, onset in cycle 4)?
Its value is “One”.

What about the “patients with dose reductions in the 300 mg cohort” value ([1]; ARRY-382 300 mg cohort) of the same molecule?
Its value is 3 patients.

What about the “patients who experienced a DLT in the 400 mg cohort” value ([1]; ARRY-382 400 mg QD + pembrolizumab) of the same molecule?
Its value is 2 of 7 and Two of seven.

And the “course of AST and CK elevations after interruption of ARRY-382” value ([1]; Part A)?
The value was “resolved in all patients; also recorded: reversible”.

And the “grade 4 events of increased blood CK” value ([1]; Part A)?
The value was “one”.

And the “patients with AST elevation who required dose reduction” value ([1]; Part A)?
Its value is 2 patients.

What about the “patients with CK elevation who required dose reduction” value ([1]; Part A) of the same molecule?
Its value is 3 patients.

What about the “patients with immune-related adverse events (investigator-classified)” value ([1]; Part A) of the same molecule?
The value was 5 patients.

What about the “most common adverse events of any grade” value ([1]; Part A, 19 patients, ARRY-382 + pembrolizumab) of the same molecule?
The value was “increased laboratory values (AST, CK, ALT, alkaline phosphatase (ALP), lipase, amylase), fatigue, pyrexia, and nausea”.

What about the “most common grade 3/4 events (>10%)” value [1, 4] of the same molecule?
The value was “increased AST, increased CK, rash, lipase increased, increased ALP, increased ALT, and anemia”.

And the “patients with grade 3 AST elevation” value [1, 4]?
Its value is 5 patients.

And the “on-study deaths (on treatment or within 30 days of last dose)” value ([1]; Part A, cause disease progression in all cases)?
Its value is 3.

What about the “recommended phase 2 dose (RP2D)” value ([1]; QD continuously, in combination with pembrolizumab 2 mg/kg IV every 3 weeks) of the same molecule?
The value was 300 mg.

And the “immune-related adverse events, manageability” value ([1]; regardless of relationship to study drug)?
Its value is “observed and were manageable”.

And the “doses with biological activity” value ([2]; QD)?
Its value is “greater than or equal to 200 mg”.

And the “maximum tolerated dose (MTD)” value ([2]; once daily (QD))?
The value was 400 mg.

And the “exposure in the 300 mg versus 400 mg dose cohorts” value ([3]; 300 mg vs 400 mg QD)?
Its value is “similar”.

What about the “dose proportionality of ARRY-382 exposure” value ([3]; 200, 300, 400 mg QD with pembrolizumab) of the same molecule?
The value was “generally dose-proportional”.

What about the “PK interactions between ARRY-382 and pembrolizumab” value ([3]; patients, Part A) of the same molecule?
Its value is “no evidence of any PK interactions”.

What about the “average maximum increase in CSF-1 levels from baseline, 300 mg versus 400 mg cohorts” value (CSF-1; 300 mg vs 400 mg cohorts) of the same molecule?
The value was “similar”.

What about the “average maximum increase in CSF-1 levels from baseline” value (CSF-1; ARRY-382 300 mg QD with pembrolizumab) of the same molecule?
The value was 5.4 fold.

What about the “relation of increases from baseline in CSF-1 levels to ARRY-382 exposure” value (CSF-1; Part A) of the same molecule?
Its value is “correlated with increasing ARRY-382 exposure”.

From patent US20190211102A1, “METHODS AND COMBINATION THERAPY TO TREAT CANCER” (Array BioPharma Inc., priority 2018, published 2019)
